Test results reported in publication PMC9234961 (Journal of Medicinal Chemistry, 2022).
“And” between values parts separate entries of the source, which are not always exact repeats. Equal entries are not always repeated. Where two headings read alike, the source gives them in different places.

Legend:
[1] = target: kinases (468) (Homo sapiens, UniProt O43353); conditions: kinase RIPK2 (Entrez RIPK2); compound concentration 1000 nM
[2] = target: kinases (468) (Homo sapiens, UniProt O75747); conditions: PIK3C2G; 1000 nM
[3] = target: kinases (468) (Homo sapiens, UniProt O94768); conditions: DRAK2 (STK17B); 1000 nM
Sequence of kinases (468) (Homo sapiens, UniProt O94768) (O94768 whole entry): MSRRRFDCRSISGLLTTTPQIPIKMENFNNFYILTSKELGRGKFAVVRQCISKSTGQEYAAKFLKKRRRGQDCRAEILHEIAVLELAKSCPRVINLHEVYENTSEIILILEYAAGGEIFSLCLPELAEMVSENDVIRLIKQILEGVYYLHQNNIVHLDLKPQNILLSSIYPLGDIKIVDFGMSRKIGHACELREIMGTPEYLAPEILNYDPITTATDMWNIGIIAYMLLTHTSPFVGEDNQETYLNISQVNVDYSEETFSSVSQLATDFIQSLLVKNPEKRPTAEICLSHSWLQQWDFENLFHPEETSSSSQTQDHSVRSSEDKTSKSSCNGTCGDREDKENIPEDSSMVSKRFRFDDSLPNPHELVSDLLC

[4] = target: kinases (468) (Homo sapiens, UniProt O96013); conditions: PAK4; 1000 nM
Sequence of kinases (468) (Homo sapiens, UniProt O96013) (O96013 whole entry): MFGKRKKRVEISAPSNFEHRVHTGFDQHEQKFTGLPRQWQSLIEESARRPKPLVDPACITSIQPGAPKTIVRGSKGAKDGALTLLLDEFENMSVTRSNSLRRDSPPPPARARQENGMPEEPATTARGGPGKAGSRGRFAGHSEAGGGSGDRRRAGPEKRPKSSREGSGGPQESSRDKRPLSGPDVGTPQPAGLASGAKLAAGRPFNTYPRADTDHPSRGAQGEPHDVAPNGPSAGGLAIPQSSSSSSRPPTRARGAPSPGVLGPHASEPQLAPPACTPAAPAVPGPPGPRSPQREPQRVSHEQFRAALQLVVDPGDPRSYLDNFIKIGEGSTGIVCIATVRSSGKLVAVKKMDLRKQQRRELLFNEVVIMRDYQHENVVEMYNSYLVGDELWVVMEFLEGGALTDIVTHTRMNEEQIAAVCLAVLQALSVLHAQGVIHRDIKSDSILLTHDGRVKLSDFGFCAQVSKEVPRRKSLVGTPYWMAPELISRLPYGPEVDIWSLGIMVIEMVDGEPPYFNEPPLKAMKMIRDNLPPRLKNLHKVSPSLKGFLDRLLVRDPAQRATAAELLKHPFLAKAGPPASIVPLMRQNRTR

[5] = target: kinases (468) (Homo sapiens, UniProt P00519, E255K); conditions: ABL1(E255K)-phosphorylated; 1000 nM
[6] = target: kinases (468) (Homo sapiens, UniProt P00533, G719C); conditions: EGFR(G719C); 1000 nM
[7] = target: kinases (468) (Homo sapiens, UniProt P00533, L861Q); conditions: EGFR(L861Q); 1000 nM
[8] = target: kinases (468) (Homo sapiens, UniProt P00533, T790M); conditions: EGFR(T790M); 1000 nM
[9] = target: kinases (468) (Homo sapiens, UniProt P07333); conditions: 1000 nM
Sequence of kinases (468) (Homo sapiens, UniProt P07333) (P07333 20-972): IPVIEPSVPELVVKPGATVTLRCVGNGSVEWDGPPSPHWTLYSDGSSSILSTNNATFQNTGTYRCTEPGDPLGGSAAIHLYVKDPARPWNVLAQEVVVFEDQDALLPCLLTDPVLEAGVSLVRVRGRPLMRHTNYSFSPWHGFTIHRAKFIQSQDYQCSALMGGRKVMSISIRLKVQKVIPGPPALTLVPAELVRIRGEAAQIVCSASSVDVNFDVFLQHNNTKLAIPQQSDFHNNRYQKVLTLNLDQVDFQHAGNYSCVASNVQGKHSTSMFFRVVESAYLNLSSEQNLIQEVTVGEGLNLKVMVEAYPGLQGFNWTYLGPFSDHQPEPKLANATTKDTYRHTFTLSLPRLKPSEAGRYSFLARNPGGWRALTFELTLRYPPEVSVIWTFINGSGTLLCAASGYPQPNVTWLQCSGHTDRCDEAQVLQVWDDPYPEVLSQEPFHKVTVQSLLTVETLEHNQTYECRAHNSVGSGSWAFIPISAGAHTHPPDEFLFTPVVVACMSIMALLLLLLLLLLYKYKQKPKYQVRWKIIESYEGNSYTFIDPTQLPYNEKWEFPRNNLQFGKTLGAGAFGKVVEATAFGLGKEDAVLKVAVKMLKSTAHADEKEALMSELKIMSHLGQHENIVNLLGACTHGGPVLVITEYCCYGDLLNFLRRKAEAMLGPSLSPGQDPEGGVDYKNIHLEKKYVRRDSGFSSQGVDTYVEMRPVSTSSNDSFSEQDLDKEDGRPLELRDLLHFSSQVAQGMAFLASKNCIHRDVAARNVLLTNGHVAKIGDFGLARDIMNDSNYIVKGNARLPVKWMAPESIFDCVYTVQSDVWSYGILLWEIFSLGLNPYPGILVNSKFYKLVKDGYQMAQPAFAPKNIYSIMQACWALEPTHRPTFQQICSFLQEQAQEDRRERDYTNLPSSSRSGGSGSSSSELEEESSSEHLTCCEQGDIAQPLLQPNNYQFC

[10] = target: kinases (468) (Homo sapiens, UniProt P23443); conditions: kinase S6K1 (Entrez RPS6KB1); compound concentration 1000 nM
Sequence of kinases (468) (Homo sapiens, UniProt P23443) (P23443 whole entry): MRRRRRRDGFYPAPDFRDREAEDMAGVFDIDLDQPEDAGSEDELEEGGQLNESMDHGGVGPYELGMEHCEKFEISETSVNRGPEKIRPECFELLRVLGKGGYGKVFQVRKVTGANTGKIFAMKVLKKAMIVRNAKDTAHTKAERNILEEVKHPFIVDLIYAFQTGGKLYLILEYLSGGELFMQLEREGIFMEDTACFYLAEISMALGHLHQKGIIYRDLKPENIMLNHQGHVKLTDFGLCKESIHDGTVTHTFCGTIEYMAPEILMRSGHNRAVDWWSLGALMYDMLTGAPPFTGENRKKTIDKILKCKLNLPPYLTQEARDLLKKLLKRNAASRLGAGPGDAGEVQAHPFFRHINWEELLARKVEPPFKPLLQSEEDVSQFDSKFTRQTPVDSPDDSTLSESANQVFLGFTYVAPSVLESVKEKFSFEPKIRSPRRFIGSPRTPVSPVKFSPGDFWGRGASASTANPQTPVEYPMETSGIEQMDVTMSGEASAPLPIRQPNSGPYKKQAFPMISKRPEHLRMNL

[11] = target: kinases (468) (Homo sapiens, UniProt P31749); conditions: AKT1; 1000 nM
[12] = target: kinases (468) (Homo sapiens, UniProt P35626); conditions: GRK3 (ADRBK2); 1000 nM
[13] = target: kinases (468) (Homo sapiens, UniProt P42336, C420R); conditions: PIK3CA(C420R); 1000 nM
Sequence of kinases (468) (Homo sapiens, UniProt P42336, C420R) (P42336 whole entry C420R): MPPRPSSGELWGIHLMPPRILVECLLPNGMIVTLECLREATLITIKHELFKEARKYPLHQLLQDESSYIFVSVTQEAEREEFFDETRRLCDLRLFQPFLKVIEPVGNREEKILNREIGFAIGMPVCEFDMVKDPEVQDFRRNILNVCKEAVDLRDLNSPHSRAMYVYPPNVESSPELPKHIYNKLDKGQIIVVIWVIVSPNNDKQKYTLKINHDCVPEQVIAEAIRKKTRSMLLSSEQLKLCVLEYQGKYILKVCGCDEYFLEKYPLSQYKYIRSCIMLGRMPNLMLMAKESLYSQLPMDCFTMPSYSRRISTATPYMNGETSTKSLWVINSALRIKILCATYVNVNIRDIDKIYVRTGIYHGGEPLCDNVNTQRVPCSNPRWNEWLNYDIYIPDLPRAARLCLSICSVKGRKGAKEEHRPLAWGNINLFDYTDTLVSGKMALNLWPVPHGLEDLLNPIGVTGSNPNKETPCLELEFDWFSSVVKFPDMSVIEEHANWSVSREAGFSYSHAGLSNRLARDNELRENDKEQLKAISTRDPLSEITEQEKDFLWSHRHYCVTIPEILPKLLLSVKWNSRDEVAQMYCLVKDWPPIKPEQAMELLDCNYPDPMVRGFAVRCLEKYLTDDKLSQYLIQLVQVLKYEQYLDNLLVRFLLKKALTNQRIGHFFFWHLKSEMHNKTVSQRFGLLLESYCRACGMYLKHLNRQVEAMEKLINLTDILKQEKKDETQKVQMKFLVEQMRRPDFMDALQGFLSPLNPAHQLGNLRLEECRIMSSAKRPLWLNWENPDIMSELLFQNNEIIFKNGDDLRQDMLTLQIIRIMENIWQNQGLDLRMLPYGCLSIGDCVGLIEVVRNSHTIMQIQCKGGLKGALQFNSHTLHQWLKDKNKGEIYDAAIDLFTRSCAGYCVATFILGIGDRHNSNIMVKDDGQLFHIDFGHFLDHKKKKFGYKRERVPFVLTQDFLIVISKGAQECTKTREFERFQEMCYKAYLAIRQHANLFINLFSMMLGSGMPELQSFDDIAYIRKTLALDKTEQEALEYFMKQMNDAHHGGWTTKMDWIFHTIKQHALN

[14] = target: kinases (468) (Homo sapiens, UniProt P42336, E542K); conditions: PIK3CA(E542K); 1000 nM
Sequence of kinases (468) (Homo sapiens, UniProt P42336, E542K) (P42336 whole entry E542K): as the sequence (P42336 whole entry C420R) above, with R420C, E542K counted along it

[15] = target: kinases (468) (Homo sapiens, UniProt P42336, H1047L); conditions: PIK3CA(H1047L); 1000 nM
Sequence of kinases (468) (Homo sapiens, UniProt P42336, H1047L) (P42336 whole entry H1047L): as the sequence (P42336 whole entry C420R) above, with R420C, H1047L counted along it

[16] = target: kinases (468) (Homo sapiens, UniProt P50613); conditions: CDK7; 1000 nM
[17] = target: kinases (468) (Homo sapiens, UniProt P57058); conditions: HUNK; 1000 nM
[18] = target: kinases (468) (Homo sapiens, UniProt Q02779); conditions: MLK2 (MAP3K10); 1000 nM
[19] = target: kinases (468) (Homo sapiens, UniProt Q06187); conditions: BTK; 1000 nM
[20] = target: kinases (468) (Homo sapiens, UniProt Q13164); conditions: ERK5 (MAPK7); 1000 nM
Sequence of kinases (468) (Homo sapiens, UniProt Q13164) (Q13164 whole entry): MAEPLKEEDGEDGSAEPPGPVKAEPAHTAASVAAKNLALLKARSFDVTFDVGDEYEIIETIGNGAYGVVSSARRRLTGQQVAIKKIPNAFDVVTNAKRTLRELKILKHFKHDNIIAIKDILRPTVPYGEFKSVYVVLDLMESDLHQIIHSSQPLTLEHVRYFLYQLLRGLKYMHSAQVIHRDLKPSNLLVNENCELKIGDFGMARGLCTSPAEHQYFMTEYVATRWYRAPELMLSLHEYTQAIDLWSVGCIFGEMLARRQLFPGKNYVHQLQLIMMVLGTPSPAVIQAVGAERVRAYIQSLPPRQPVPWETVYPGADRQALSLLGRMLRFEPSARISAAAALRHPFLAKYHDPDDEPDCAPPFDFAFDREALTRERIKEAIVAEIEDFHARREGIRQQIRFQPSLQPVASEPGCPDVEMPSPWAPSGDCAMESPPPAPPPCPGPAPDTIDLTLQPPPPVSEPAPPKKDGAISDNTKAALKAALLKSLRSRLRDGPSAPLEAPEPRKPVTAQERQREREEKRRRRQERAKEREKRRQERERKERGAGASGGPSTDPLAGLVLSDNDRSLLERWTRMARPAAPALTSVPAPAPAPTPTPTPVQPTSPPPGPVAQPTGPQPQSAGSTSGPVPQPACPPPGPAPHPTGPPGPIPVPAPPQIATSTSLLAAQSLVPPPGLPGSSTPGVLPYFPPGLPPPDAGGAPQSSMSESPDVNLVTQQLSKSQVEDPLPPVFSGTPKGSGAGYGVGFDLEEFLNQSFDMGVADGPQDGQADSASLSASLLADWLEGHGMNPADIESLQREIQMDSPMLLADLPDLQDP

[21] = target: kinases (468) (Homo sapiens, UniProt Q14012); conditions: CAMK1; 1000 nM
[22] = target: kinases (468) (Homo sapiens, UniProt Q15831); conditions: LKB1 (STK11); 1000 nM
[23] = target: kinases (468) (Homo sapiens, UniProt Q16539); conditions: p38-alpha (MAPK14); 1000 nM
[24] = target: kinases (468) (Homo sapiens, UniProt Q16816); conditions: PHKG1; 1000 nM
[25] = target: kinases (468) (Homo sapiens, UniProt Q8IWQ3); conditions: BRSK2; 1000 nM
[26] = target: kinases (468) (Homo sapiens, UniProt Q8TF76); conditions: HASPIN (GSG2); 1000 nM
[27] = target: kinases (468) (Homo sapiens, UniProt Q9H3Y6); conditions: kinase SRMS (Entrez SRMS); compound concentration 1000 nM
Sequence of kinases (468) (Homo sapiens, UniProt Q9H3Y6) (Q9H3Y6 whole entry): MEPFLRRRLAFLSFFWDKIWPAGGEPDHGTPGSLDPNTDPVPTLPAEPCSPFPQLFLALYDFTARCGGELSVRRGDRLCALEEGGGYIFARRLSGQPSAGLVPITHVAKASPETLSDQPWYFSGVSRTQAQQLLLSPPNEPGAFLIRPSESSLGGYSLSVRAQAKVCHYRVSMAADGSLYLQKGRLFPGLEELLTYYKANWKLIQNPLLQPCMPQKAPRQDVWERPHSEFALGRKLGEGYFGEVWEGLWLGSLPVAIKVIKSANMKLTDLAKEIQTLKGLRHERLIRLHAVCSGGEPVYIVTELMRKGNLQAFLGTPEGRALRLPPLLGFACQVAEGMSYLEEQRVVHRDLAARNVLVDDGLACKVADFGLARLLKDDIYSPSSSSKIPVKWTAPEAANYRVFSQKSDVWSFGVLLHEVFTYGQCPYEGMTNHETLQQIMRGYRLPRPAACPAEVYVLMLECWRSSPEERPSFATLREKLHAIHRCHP

[28] = target: kinases (468) (Homo sapiens, UniProt Q9P2K8, S808G); conditions: GCN2(Kin.Dom.2,S808G) (EIF2AK4); 1000 nM
[29] = target: kinases (468) (Homo sapiens, UniProt Q9UEW8); conditions: kinase STK39 (Entrez STK39); compound concentration 1000 nM
[30] = target: kinases (468) (Homo sapiens, UniProt Q9UM73, C1156Y); conditions: ALK(C1156Y); 1000 nM
[31] = target: kinases (468) (Homo sapiens, UniProt Q9Y2H1); conditions: NDR2 (STK38L); 1000 nM
[32] = target: kinases (468) (Plasmodium falciparum, UniProt P61075); conditions: PFPK5(P.falciparum) (MAL13P1.279); 1000 nM
[33] = tested on: kinases (468)

For `C[C@H]1C[C@@H](O)CN(c2ncc(Cl)c(Nc3ccc4c(c3)c3c(c(=O)n4C)OCC(F)(F)[C@H](C4CC4)N3)n2)C1` [CCT373566_9A], the “Percent Control” value [1] was 100%, the “Percent Control” value [2] was 86% and the “Percent Control” value [3] was 98%. The “Percent Control” value [4] was 100%, the “Percent Control” value [5] was 99% and the “Percent Control” value [6] was 94%. The “Percent Control” value [7] was 100%, the “Percent Control” value [8] was 100% and the “Percent Control” value ([9]; CSF1R-autoinhibited) was 77%. For the same molecule, the “Percent Control” value ([9]; CSF1R) was 100%, the “Percent Control” value [10] was 85% and the “Percent Control” value [11] was 100%. The “Percent Control” value [12] was 100%, the “Percent Control” value [13] was 93% and the “Percent Control” value [14] was 83%. The “Percent Control” value [15] was 84%, the “Percent Control” value [16] was 93% and the “Percent Control” value [17] was 100%. The “Percent Control” value [18] was 100%, the “Percent Control” value [19] was 100% and the “Percent Control” value [20] was 97%. For the same molecule, the “Percent Control” value [21] was 89%, the “Percent Control” value [22] was 65% and the “Percent Control” value [23] was 96%. For the same molecule, the “Percent Control” value [24] was 97%, the “Percent Control” value [25] was 100% and the “Percent Control” value [26] was 100%. For the same molecule, the “Percent Control” value [27] was 90%, the “Percent Control” value [28] was 100% and the “Percent Control” value [29] was 98%. The “Percent Control” value [30] was 95%, the “Percent Control” value [31] was 98% and the “Percent Control” value [32] was 89%. The “Percent Control” value [33] was 98% and 100% and 83%, the “Percent Control” value ([33]; FLT3(ITD), 1000 nM) was 99% and the “Percent Control” value ([33]; FLT3(ITD,D835V), 1000 nM) was 75%.
